Experimental data reported in patent US9822103B2, “Inhibitors of lysine methyl transferase” (priority 2013, dated 2017).

Each compound was assayed against recombinant EZH2-641F complex (EZH2 Y641F/EED/SUZ12/RbAp48/AEBP2) (Homo sapiens (Human), UniProt Q15910, Y641F) (assay: EZH2 Histone Methyl Transferase Assay (scintillation proximity assay)). Conditions: 350 nM histone peptide substrate, 500 nM 3H-SAM, 3 hours room temperature.
recombinant EZH2-641F complex (EZH2 Y641F/EED/SUZ12/RbAp48/AEBP2), sequence (Q15910 whole entry Y641F): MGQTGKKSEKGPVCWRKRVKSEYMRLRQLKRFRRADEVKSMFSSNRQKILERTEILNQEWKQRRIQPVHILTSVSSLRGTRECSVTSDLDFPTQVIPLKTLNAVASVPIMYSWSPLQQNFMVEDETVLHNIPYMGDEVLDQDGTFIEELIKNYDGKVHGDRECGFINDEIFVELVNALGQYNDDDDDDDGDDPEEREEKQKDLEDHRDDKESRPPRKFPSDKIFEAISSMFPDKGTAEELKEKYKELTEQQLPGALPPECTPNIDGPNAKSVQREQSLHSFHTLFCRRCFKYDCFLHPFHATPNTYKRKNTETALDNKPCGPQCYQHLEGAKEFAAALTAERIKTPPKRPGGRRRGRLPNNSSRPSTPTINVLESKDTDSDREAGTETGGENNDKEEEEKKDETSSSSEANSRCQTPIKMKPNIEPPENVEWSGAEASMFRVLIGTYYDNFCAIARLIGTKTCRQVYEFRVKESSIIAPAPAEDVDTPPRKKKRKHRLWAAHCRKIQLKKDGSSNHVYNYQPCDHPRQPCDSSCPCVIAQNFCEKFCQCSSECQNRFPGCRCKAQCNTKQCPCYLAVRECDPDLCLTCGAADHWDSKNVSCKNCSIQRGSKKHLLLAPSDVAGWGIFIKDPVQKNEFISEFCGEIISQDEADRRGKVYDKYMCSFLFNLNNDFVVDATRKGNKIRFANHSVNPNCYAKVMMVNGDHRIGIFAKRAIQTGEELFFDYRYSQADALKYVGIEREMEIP
recombinant EZH2-641F complex (EZH2 Y641F/EED/SUZ12/RbAp48/AEBP2), sequence (O75530 whole entry partner): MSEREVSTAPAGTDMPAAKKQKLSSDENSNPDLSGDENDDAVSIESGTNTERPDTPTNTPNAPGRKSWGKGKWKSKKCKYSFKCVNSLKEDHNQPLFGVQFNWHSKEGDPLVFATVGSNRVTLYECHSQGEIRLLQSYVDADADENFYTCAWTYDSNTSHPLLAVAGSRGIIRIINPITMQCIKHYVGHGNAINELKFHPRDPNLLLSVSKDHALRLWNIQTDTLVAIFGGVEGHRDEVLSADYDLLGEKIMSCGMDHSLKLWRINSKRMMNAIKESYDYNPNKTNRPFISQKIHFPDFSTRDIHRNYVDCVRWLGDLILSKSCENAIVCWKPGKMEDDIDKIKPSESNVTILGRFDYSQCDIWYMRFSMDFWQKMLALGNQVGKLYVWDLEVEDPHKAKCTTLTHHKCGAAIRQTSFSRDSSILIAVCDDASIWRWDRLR
recombinant EZH2-641F complex (EZH2 Y641F/EED/SUZ12/RbAp48/AEBP2), sequence (Q15022 whole entry partner): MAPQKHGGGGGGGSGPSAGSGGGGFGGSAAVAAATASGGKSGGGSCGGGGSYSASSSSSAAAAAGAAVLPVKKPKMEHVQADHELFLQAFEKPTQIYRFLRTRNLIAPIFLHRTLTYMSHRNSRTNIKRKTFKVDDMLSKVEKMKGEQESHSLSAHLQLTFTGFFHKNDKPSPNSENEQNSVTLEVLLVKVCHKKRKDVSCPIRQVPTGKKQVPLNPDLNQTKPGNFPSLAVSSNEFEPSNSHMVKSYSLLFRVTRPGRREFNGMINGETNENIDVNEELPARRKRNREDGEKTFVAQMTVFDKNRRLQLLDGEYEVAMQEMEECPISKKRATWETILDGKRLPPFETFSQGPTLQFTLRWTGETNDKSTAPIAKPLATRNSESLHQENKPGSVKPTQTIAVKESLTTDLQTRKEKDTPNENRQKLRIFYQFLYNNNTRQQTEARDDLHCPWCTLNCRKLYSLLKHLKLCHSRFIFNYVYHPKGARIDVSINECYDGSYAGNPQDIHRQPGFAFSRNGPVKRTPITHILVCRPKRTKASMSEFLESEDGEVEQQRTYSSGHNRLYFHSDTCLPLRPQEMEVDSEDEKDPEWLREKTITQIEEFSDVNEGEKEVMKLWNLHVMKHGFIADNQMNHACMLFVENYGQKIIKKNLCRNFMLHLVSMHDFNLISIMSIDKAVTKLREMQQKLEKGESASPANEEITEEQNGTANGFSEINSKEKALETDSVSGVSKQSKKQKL
recombinant EZH2-641F complex (EZH2 Y641F/EED/SUZ12/RbAp48/AEBP2), sequence (Q09028 whole entry partner): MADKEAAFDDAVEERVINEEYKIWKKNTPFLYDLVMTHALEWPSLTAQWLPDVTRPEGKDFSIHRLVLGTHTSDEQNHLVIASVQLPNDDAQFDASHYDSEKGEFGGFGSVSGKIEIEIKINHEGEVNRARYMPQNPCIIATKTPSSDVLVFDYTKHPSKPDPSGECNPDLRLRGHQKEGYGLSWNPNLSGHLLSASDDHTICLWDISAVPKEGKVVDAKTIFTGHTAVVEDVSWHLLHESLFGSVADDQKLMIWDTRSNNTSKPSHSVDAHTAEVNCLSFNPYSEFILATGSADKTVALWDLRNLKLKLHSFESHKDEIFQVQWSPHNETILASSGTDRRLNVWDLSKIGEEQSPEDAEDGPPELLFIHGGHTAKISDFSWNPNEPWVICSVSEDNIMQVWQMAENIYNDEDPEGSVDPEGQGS
recombinant EZH2-641F complex (EZH2 Y641F/EED/SUZ12/RbAp48/AEBP2), sequence (Q6ZN18 whole entry partner): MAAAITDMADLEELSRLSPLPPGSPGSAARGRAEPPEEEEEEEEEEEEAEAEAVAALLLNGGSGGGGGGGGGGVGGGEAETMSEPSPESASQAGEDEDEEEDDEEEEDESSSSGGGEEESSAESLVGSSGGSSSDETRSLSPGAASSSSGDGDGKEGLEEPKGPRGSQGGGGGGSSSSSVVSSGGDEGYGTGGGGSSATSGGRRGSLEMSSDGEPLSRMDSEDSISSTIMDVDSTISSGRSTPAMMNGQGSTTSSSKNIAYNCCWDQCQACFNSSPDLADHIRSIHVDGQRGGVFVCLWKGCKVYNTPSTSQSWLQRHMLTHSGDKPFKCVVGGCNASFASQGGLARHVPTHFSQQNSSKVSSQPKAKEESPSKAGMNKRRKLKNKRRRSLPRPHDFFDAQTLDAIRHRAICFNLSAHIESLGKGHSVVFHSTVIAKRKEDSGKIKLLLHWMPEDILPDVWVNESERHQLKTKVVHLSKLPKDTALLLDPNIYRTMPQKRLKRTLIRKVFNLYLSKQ
Type: biochemical
Procedure: EZH2 Histone Methyl Transferase Assay
The effectiveness of compounds of the present invention as inhibitors of histone methyl transferases can be readily tested by assays known to those skilled in the art. For example, in vitro histone methyl transferase assays may be conducted with a relevant purified histone methyl transferase and an appropriate synthetic substrate to determine the inhibitory activity of the compounds. Assays for inhibition of EZH2 by the instant compounds were performed in 384-well plates with reaction mixtures containing 350 nM of histone peptide substrate (ATKAAR-K(Me2)-SAPATGGVKKPHRYRPG-GK(Biotin), 500 nM S-[methyl-^3H]adenosyl-L-methionine (55-85 Ci/mmol), 50 mM Tris-HCl (pH 9.0), 50 mM NaCl, 1 mM dithiothreitol, Tween-20 at 0.01% and fatty-acid free bovine serum albumin at 0.01%, and recombinant EZH2-641F complex (EZH2 Y641F/EED/SUZ12/RbAp48/AEBP2) at 5 nM (>98% purity, BPS Bioscience) or 15 nM (50% purity, in-house). Reaction mixtures were incubated at room temperature for 3 hours, and the reactions were terminated by 0.005% poly-L-lysine solution in 20 mM Tris-HCl (pH 7.5) and 150 mM NaCl. Reaction products were captured by binding to strepavidin-conjugated imaging beads. Incorporation of radioactive methyl group into the histone peptide substrate was determined in Leadseeker (GE Healthcare) by means of scintillation proximity assay. Dose response curves were generated to determine the concentration required to inhibit 50% of methyl transferase activity (EC50). Compounds were dissolved at 10 mM in dimethylsulfoxide (DMSO) and evaluated at eleven concentrations. EC50 values were derived by non-linear regression analysis.
`Cc1cc(C)c(CNC(=O)c2cc3c(c(-c4ccc(N5CCNCC5)nc4)c2)OC(C)CCC3)c(=O)[nH]1` (stereo not drawn) [Example 51, N-((4,6-Dimethyl-2-oxo-1,2-dihydropyridin-3-yl)methyl)-2-methyl-9-(6-(piperazin-1-yl)pyridin-3-yl)-2,3,4,5-tetrahydrobenzo[b]oxepine-7-carboxamide] gave an IC50 greater than 1000 nM.
`Cc1cc(C)c(CNC(=O)c2cc(C#N)c3c(c2)CC(C)(C)O3)c(=O)[nH]1` [Example 22, 7-Cyano-N-((4,6-dimethyl-2-oxo-1,2-dihydropyridin-3-yl)methyl)-2,2-dimethyl-2,3-dihydrobenzofuran-5-carboxamide] was tested, and the IC50 was greater than 1000 nM.
With `Cc1cc(C)c(CNC(=O)c2cc(-c3ccc(N4CCNCC4)nc3)c3c(c2)C2(CCCC2)CO3)c(=O)[nH]1` [Example 77, N-((4,6-Dimethyl-2-oxo-1,2-dihydropyridin-3-yl)methyl)-7-(6-(piperazin-1-yl)pyridin-3-yl)-2H-spiro[benzofuran-3,1′-cyclopentane]-5-carboxamide] the IC50 was greater than 1000 nM.
Work on `Cc1cc(C)c(CNC(=O)c2cc3c(c(-c4ccc(N5CCNCC5)cc4)c2)OC(C)(C)C3)c(=O)[nH]1` [Example 18, N-((4,6-Dimethyl-2-oxo-1,2-dihydropyridin-3-yl)methyl)-2,2-dimethyl-7-(4-(piperazin-1-yl)phenyl)-2,3-dihydrobenzofuran-5-carboxamide] yielded an IC50 of less than 500 nM.
`C=C(C)C1(C)Cc2cc(C(=O)NCc3c(C)cc(C)[nH]c3=O)cc(Br)c2O1` (stereo not drawn) [Example 82, 7-Bromo-N-((4,6-dimethyl-2-oxo-1,2-dihydropyridin-3-yl)methyl)-2-methyl-2-(prop-1-en-2-yl)-2,3-dihydrobenzofuran-5-carboxamide] was tested, and the IC50 was greater than 1000 nM.
In the case of `C=C(C)C1(C)Cc2cc(C(=O)NCc3c(C)cc(C)[nH]c3=O)cc(-c3ccc(OC)nc3)c2O1` (stereo not drawn) [Example 83, N-((4,6-dimethyl-2-oxo-1,2-dihydropyridin-3-yl)methyl)-7-(6-methoxypyridin-3-yl)-2-methyl-2-(prop-1-en-2-yl)-2,3-dihydrobenzofuran-5-carboxamide], the IC50 is reported as 500 to 1000 nM.
`Cc1cc(C)c(CNC(=O)c2cc3c(c(-c4cnc5ccccc5c4)c2)OC(C)(C)C3)c(=O)[nH]1` [Example 13, N-((4,6-Dimethyl-2-oxo-1,2-dihydropyridin-3-yl)methyl)-2,2-dimethyl-7-(quinolin-3-yl)-2,3-dihydrobenzofuran-5-carboxamide] gave an IC50 greater than 1000 nM.
`Cc1cc(C)c(CNC(=O)c2cc3c(c(-c4cnc(N5CCN(C(=O)OC(C)(C)C)CC5)nc4)c2)OC(C)(C)C3)c(=O)[nH]1` [Example 17, t-Butyl 4-(5-(5-(((4,6-dimethyl-2-oxo-1,2-dihydropyridin-3-yl)methyl)carbamoyl)-2,2-dimethyl-2,3-dihydrobenzofuran-7-yl)pyrimidin-2-yl)piperazine-1-carboxylate] was tested, and the IC50 was less than 500 nM.
`C=CC1(C)Cc2cc(C(=O)NCc3c(C)cc(C)[nH]c3=O)cc(-c3ccc(CN4CCOCC4)cc3)c2O1` (stereo not drawn) [Example 58, N-((4,6-Dimethyl-2-oxo-1,2-dihydropyridin-3-yl)methyl)-2-methyl-7-(4-(morpholinomethyl)phenyl)-2-vinyl-2,3-dihydrobenzofuran-5-carboxamide] gave an IC50 greater than 1000 nM.
For `COc1ccc(-c2cc(C(=O)NCc3c(C)cc(C)[nH]c3=O)cc3c2OC2(CCCC2)C3)cn1` [Example 71, N-((4,6-Dimethyl-2-oxo-1,2-dihydropyridin-3-yl)methyl)-7-(6-methoxypyridin-3-yl)-3H-spiro[benzofuran-2,1′-cyclopentane]-5-carboxamide], the IC50 was greater than 1000 nM.
`CC1=C(C)Cc2cc(C(=O)NCc3c(C)cc(C)[nH]c3=O)cc(Br)c2OC1` [Example 81, 9-Bromo-N-((4,6-dimethyl-2-oxo-1,2-dihydropyridin-3-yl)methyl)-3,4-dimethyl-2,5-dihydrobenzo[b]oxepine-7-carboxamide] showed an IC50 greater than 1000 nM.
Compound `CCCc1cc(C)[nH]c(=O)c1CNC(=O)c1cc(Cl)c2c(c1)CC(C)(C)O2` [Example 23, 7-Chloro-2,2-dimethyl-N-((6-methyl-2-oxo-4-propyl-1,2-dihydropyridin-3-yl)methyl)-2,3-dihydrobenzofuran-5-carboxamide] has an IC50 greater than 1000 nM.
